Measured values: patent US20230322769A1, “HETEROAROMATIC RING COMPOUND AS RET KINASE INHIBITOR, AND PREPARATION AND USE THEREOF” (JIANGSU CHIA TAI FENGHAI PHARMACEUTICAL CO., LTD., priority 2020, published 2023)

How the values were obtained:
FGFR4 = FGFR4 (Homo sapiens (Human), UniProt P22455); experiment: HTRF kinase activity assay, FGFR4; assay type: biochemical
Method: Activity Experiment 8: Inhibition of FGFR Family Kinases' Activity by Prepared Compounds The compounds were assayed for activity IC50 against the FGFR family kinases. Related kinases were purchased from Carna and Signalchem.
The activity assay method for the related kinases was established by homogeneous time-resolved fluorescence (HTRF), and the inhibitory activity of the compounds was determined. A 5 μL reaction mixture was prepared, comprising 1× enzymatic buffer (Cisbio, HTRF KinEASE™-TK), 5 mM MgCl2, 1 mM DTT, 1 μM TK substrate-biotin (Cisbio, HTRF KinEASE™-TK), corresponding concentrations of ATP and related kinases, and gradient concentrations of compounds.
The kinases and compounds were pre-incubated for 10 min, and then ATP and substrate were added to start the reaction. All the enzyme-catalyzed reactions were carried out at 25° C. for 40 min. After the enzyme-catalyzed reactions were completed, 5 μL of TK antibody-cryptate and streptavidin-XL665 (the reaction concentration of streptavidin-XL665 was 62.5 nM) were added to the reaction mixtures, and the mixtures were incubated at 25° C. for another 60 min.

Ba/F3 KIF5B-RET cells = experiment: Ba/F3 KIF5B-RET cell inhibition (CellTiter-Glo); assay type: cell-based; details: Mus musculus, BaF3, 72 h
Method: Activity Experiment 3: Inhibition of Ba/F3 KIF5B-RET Cells by Prepared Compounds Ba/F3 KIF5B-RET, Ba/F3KIF5B-RET-V804M, Ba/F3 RET-M918T and Ba/F3 KIF5B-RET-G810R cells growing in log phase were harvested and counted using a […]. The cell viability was determined by the trypan blue exclusion method, and the cell viability was kept over 90%. The cell concentration was adjusted, and 90 μL of the cell suspension was added to a 96-well plate. The cells in the 96-well plate were incubated overnight at 37° C. with 5% CO2 and 95% humidity. Corresponding gradient concentrations of drug solutions (the maximum concentration was 1000 nM) were added to the 96-well plate inoculated with cells at 10 μL/well. Triplicate wells were set per drug concentration, and the final concentration of DMSO was 0.1%. The drug-treated cells in the 96-well plate were incubated for another 72 h at 37° C. with 5% CO2 and 95% humidity. After the drug treatment was completed, 100 μL of CellTiter-Glo reagent was added to each well. The cell plate was shaken on an orbital shaker for 5 min to lyse the cells and then let stand at room temperature for 20 min to stabilize the luminescence signals, and then the luminescence values were read. The data were analyzed using the GraphPad Prism 5.0 software. Dose-response curves were fit to the data using nonlinear S-curve regression, and IC50 was calculated from the curves.

[1] = system: BA/F3 KIF5B-RET graft tumor; experiment: Mouse subcutaneous BA/F3 KIF5B-RET graft tumor model; assay type: in vivo
hERG potassium channel = hERG potassium channel (Homo sapiens (Human), UniProt Q12809); experiment: Inhibition of hERG potassium channel, whole-cell patch clamp in HEK293 cells; details: read-out: IC50 for inhibition of hERG potassium channel; HEK293 cells stably expressing hERG, patch clamp
[2] = Pharmacokinetic assay in rats; assay type: in vivo, rat; details: for CL / Vz / F / AUC(0-inf) / AUC(0-t) / Cmax / Tmax / clearance / Vd / half-life: SD male rats; for F: p.o. 5 mg/kg vs i.v. 1 mg/kg; for AUC(0-inf) / AUC(0-t) / Cmax / Tmax / clearance / Vd / half-life: rat, plasma; for Vd: read-out: Vz
FGFR2 V564I = FGFR2 V564I (Homo sapiens (Human), UniProt P21802, V564I); experiment: HTRF kinase activity assay, FGFR2 V564I; assay type: biochemical
FGFR2 V564I, sequence (P21802 22-821 V564I): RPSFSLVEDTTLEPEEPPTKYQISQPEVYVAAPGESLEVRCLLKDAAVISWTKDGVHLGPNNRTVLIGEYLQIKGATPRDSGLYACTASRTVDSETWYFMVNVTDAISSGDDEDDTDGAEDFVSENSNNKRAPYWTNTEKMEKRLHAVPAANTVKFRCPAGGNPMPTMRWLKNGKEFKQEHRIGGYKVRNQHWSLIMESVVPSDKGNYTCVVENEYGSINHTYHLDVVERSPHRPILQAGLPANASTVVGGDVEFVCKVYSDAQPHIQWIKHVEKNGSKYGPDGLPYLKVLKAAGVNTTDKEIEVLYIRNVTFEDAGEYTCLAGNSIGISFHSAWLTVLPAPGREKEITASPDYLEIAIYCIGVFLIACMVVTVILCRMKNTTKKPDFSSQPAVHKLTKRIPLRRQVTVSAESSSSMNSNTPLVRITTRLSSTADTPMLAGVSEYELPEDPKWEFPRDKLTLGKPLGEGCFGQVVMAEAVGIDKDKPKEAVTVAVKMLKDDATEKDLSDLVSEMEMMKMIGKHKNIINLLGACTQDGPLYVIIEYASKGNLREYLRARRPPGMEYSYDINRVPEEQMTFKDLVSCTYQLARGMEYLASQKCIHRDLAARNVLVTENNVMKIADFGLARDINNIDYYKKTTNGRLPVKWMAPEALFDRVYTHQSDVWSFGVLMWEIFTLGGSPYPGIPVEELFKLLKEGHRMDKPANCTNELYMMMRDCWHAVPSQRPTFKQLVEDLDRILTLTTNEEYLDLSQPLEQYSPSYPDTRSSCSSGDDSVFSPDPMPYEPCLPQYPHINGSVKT
Method: Activity Experiment 8: Inhibition of FGFR Family Kinases' Activity by Prepared Compounds The compounds were assayed for activity IC50 against the FGFR family kinases. Related kinases were purchased from Carna and Signalchem. The activity assay method for the related kinases was established by homogeneous time-resolved fluorescence (HTRF), and the inhibitory activity of the compounds was determined. […] The kinases and compounds were pre-incubated for 10 min, and then ATP and substrate were added to start the reaction. All the enzyme-catalyzed reactions were carried out at 25° C. for 40 min. After the enzyme-catalyzed reactions were completed, 5 μL of TK antibody-cryptate and streptavidin-XL665 (the reaction concentration of streptavidin-XL665 was 62.5 nM) were added to the reaction mixtures, and the mixtures were incubated at 25° C. for another 60 min.

RET wild type (RET WT) = RET wild type (RET WT) (Homo sapiens (Human), UniProt P07949); experiment: HTRF kinase activity assay, RET wild type; assay type: biochemical; details: 1 μM ATP
RET wild type (RET WT), sequence (P07949 29-1114): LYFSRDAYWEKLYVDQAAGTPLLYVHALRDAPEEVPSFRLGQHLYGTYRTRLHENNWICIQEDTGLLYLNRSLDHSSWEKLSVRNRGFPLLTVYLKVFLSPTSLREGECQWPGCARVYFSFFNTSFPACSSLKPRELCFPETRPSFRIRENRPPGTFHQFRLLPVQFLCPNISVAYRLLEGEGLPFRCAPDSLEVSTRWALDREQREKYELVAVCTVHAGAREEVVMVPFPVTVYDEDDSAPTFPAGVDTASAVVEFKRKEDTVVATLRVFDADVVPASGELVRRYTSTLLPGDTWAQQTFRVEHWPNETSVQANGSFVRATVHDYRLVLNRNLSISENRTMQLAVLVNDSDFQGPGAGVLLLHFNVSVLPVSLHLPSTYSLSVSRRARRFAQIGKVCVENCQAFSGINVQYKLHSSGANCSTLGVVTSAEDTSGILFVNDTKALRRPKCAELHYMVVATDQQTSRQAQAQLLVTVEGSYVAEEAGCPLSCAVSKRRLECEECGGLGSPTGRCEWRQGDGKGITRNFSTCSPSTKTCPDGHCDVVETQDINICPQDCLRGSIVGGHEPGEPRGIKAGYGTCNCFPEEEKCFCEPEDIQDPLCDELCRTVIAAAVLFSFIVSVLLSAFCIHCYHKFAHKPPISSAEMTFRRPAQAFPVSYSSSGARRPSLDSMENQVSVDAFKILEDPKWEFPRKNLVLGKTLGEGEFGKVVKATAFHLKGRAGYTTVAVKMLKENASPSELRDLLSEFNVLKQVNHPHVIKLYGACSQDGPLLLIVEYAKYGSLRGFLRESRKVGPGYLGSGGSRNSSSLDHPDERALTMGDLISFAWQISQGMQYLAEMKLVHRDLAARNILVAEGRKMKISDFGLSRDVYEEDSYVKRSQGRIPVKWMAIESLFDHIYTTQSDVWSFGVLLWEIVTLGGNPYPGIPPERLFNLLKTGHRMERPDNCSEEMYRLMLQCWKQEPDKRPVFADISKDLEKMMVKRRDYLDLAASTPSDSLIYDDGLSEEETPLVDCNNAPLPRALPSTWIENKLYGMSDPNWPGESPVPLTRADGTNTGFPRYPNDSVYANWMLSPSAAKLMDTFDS

KDR (VEGFR2) = KDR (VEGFR2) (Homo sapiens (Human), UniProt P35968); experiment: HTRF kinase activity assay, KDR; assay type: biochemical; details: 20 μM ATP
KDR (VEGFR2), sequence (P35968 20-1356): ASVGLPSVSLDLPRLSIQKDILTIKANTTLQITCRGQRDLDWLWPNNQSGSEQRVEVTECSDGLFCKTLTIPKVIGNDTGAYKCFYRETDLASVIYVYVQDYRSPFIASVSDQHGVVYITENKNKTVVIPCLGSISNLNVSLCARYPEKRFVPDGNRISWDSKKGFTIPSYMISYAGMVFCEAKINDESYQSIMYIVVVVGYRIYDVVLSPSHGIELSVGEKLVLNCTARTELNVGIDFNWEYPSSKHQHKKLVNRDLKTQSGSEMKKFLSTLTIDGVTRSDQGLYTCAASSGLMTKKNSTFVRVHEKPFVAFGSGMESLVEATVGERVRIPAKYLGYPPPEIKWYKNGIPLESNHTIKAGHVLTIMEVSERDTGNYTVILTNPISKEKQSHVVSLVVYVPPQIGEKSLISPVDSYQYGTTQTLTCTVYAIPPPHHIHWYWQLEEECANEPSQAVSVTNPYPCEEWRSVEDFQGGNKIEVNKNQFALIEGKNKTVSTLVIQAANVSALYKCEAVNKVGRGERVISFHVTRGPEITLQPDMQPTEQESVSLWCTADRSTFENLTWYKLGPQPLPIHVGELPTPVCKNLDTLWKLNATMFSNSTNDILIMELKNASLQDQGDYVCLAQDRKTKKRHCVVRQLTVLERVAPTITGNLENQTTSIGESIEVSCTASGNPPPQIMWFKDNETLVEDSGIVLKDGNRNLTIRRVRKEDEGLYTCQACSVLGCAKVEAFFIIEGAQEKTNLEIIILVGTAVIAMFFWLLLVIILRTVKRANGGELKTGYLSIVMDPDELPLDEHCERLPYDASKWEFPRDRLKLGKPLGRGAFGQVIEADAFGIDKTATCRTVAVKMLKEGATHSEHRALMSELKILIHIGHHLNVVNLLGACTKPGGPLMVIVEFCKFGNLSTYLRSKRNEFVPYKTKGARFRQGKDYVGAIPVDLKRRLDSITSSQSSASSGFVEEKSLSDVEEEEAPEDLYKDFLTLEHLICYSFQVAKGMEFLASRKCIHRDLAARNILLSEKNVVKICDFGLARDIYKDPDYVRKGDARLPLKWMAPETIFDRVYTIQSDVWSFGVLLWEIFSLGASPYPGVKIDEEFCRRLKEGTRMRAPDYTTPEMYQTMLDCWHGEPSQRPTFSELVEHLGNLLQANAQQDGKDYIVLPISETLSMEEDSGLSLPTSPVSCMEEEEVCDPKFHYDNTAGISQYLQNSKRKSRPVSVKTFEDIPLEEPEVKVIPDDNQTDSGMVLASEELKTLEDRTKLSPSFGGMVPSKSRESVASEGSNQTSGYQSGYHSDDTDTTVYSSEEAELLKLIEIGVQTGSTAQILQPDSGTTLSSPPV

[3] = 30 mg/kg b.i.d. intragastric, Day 11
[4] = 30 mg/kg b.i.d. intragastric, Day 15

FGFR4, sequence (P22455 22-802): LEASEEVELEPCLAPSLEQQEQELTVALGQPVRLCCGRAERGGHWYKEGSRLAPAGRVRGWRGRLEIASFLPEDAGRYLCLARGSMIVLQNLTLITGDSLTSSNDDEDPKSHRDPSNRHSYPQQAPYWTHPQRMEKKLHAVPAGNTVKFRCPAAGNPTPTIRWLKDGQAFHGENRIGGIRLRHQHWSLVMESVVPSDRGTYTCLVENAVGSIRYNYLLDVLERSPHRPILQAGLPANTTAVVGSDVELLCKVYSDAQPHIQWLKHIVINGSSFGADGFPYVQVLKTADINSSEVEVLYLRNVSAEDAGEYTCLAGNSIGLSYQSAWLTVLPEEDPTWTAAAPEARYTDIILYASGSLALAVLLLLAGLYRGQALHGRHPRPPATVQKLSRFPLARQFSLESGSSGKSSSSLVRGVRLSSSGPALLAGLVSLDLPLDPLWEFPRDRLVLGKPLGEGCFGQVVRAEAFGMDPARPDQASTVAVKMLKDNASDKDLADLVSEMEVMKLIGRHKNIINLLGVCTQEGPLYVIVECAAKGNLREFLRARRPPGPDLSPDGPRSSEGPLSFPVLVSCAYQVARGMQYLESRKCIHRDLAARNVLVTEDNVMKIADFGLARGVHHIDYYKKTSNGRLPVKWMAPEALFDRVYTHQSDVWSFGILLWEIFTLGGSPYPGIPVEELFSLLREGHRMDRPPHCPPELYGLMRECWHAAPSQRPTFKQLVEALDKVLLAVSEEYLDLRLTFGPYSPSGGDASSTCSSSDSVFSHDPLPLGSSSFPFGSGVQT

Row | Compound | IC50 (FGFR4) | IC50 (Ba/F3 KIF5B-RET cells) | Volume of graft tumor (mean ± SD) [1, 3] | Volume of graft tumor (mean ± SD) [1, 4] | CL ([2]; p.o. 5 mg/kg) | Vz ([2]; p.o. 5 mg/kg) | F [2] | AUC(0-inf) ([2]; iv, i.v. 1 mg/kg) | AUC(0-t) ([2]; iv, i.v. 1 mg/kg) | Cmax ([2]; iv, i.v. 1 mg/kg) | Tmax ([2]; iv, i.v. 1 mg/kg) | clearance ([2]; iv, i.v. 1 mg/kg) | Vd ([2]; iv, i.v. 1 mg/kg) | AUC(0-inf) ([2]; po, p.o. 5 mg/kg) | AUC(0-t) ([2]; po, p.o. 5 mg/kg) | Cmax ([2]; po, p.o. 5 mg/kg) | Tmax ([2]; po, p.o. 5 mg/kg) | half-life ([2]; po, p.o. 5 mg/kg) | IC50 (FGFR2 V564I) | further results
1 | COc1ccc(CN2C3CC2CN(c2ccc(-c4cc(OCC(C)(C)O)cn5ncc(C#N)c45)cn2)C3)cn1 [Selpercatinib, selpercatinib, reference compound] | 475 nM | 8.34 nM | 19.68 ± 17.97 mm^3 | 13.59 ± 12.43 mm^3 | 7.6 mL/min/kg | 2.039 L/kg | 66.07% | 3330 ng·h/mL | 3310 ng·h/mL | 1260 ng/mL | 0.083 h | 5.1 mL/min/kg | 1.61 L/kg | 11000 ng·h/mL | 10900 ng·h/mL | 1040 ng/mL | 2.67 h | 3.11 h | 97.6 nM | IC50 (hERG potassium channel): 2750 nM
2 | [2H]C([2H])([2H])N1CCN(c2cc(-c3ccc(N4CC5CC(C4)N5Cc4ccc(OC)nc4)nc3)c3c(C#N)cnn3c2)CC1 [Compound 94] | 595 nM | 19.8 nM | 12.19 ± 27.25 mm^3 | 8.00 ± 17.89 mm^3 | 59.4597 mL/min/kg | 68.49214 L/kg | 98.02% | 335 ng·h/mL | 240 ng·h/mL | 42.3 ng/mL | 0.08 h | 51.2 mL/min/kg | 57.6 L/kg | 1640 ng·h/mL | 1020 ng·h/mL | 63.9 ng/mL | 4 h | 15.8 h | 45.6 nM | IC50 (RET wild type (RET WT)): 4.62 nM; Volume of graft tumor (mean ± SD) ([1]; 30 mg/kg b.i.d. intragastric, Day 0): 96.85 ± 2.24 mm^3; Volume of graft tumor (mean ± SD) ([1]; 30 mg/kg q.d. intragastric, Day 0): 96.95 ± 1.48 mm^3; Volume of graft tumor (mean ± SD) ([1]; 30 mg/kg q.d. intragastric, Day 11): 14.57 ± 23.42 mm^3; Volume of graft tumor (mean ± SD) ([1]; 30 mg/kg q.d. intragastric, Day 15): 9.73 ± 16.31 mm^3; Volume of graft tumor (mean ± SD) ([1]; 60 mg/kg q.d. intragastric, Day 0): 96.76 ± 2.34 mm^3; Volume of graft tumor (mean ± SD) ([1]; 60 mg/kg q.d. intragastric, Day 11): 6.11 ± 14.98 mm^3; Volume of graft tumor (mean ± SD) ([1]; 60 mg/kg q.d. intragastric, Day 15): 3.75 ± 9.19 mm^3; IC50 (KDR (VEGFR2)): 169 nM; Clearance time in rats compared with Loxo-292 ([2]; after oral administration): took longer to be cleared; Bioavailability compared with Loxo-292 ([2]; after oral administration, rats): higher bioavailability; half-life ([2]; iv, i.v. 1 mg/kg): 13.3 h
